From patent US9458463B2, “Method for treatment of diabetes by a small molecule inhibitor for GRK5” (MAX-PLANCK-GESELLSCHAFT ZUR FÖRDERUNG DER WISSENSCHAFTEN …, priority 2010, dated 2016)
Where “and” joins values, the source holds several entries; their conditions need not be identical. Equal values may be shown once. Blank lines part the entries; values can stand above or below the compound they belong to.

What was measured:
C2C12 cells [1] = test: Cell viability assay (CellTiter-Glo / automated cell number) in C2C12; format: cell-based; conditions: Mus musculus, read-out: Inhibition of cell viability IC50
How it was run: (§1)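 ATP read by CellTiter-Glo luminescence after 10 min lysis at RT. Imaging variant: 10000 cells/well treated 72 h, then fixed and stained with Hoechst 33342 (20 μg/ml, 30 min, 37 °C). Nuclei counted automatically over six fields at 10×, compared with untreated controls, giving IC50.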

GRK5 = target: T1, GRK5 (Homo sapiens, UniProt P34947); test: Millipore KinaseProfiler radiometric filtration binding assay; format: biochemical; conditions: group II; Millipore KinaseProfiler (Table 10)
T1 construct: purchased Millipore (KinaseProfiler service)
T1 sequence (P34947 whole entry): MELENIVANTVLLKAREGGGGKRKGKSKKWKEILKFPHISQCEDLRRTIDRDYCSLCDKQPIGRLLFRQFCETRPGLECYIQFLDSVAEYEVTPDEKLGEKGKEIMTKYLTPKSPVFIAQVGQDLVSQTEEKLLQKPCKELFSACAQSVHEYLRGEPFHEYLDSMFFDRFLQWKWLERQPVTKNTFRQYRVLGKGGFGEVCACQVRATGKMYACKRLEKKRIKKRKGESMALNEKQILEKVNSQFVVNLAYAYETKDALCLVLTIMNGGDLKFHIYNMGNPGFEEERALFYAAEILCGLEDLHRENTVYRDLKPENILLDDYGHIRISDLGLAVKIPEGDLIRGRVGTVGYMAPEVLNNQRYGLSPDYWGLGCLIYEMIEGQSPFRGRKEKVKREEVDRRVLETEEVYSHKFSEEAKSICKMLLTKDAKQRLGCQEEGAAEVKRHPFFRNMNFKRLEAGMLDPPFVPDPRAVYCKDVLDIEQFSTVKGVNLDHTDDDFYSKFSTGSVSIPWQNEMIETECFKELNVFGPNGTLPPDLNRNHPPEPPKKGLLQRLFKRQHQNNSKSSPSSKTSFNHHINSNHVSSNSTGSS
Method: (§2) As alternative, IC50 values are determined by a radiometric based filtration binding assay, namely Millipore KinaseProfiler™. GRK5 is incubated with 8 mM MOPS pH7.0, 0.2 mM EDTA, 2 mg/mL casein, 10 mM MgAcetate and […] (specific activity approx. 500 cpm/pmol, concentration as required). The reaction is initiated by the addition of the MgATP mix. After incubation for 40 minutes at room temperature, the reaction is stopped by the addition of 3% phosphoric acid solution. 10 μL of the reaction is then spotted onto a P30 filtermat and washed three times for 5 minutes in 75 mM phosphoric acid and once in methanol prior to drying and scintillation counting.
as §2, with “IC50” for “As alternative, IC50”, “pH 7.0,” for “pH7.0,”

HepG2 cells = test: Cell viability assay (CellTiter-Glo / automated cell number) in HepG2; format: cell-based; conditions: Homo sapiens, read-out: Inhibition of cell viability IC50
How it was run: as §1

beta TC6 cells [2] = test: Cell viability assay (CellTiter-Glo / automated cell number) in beta TC6; format: cell-based; conditions: Mus musculus, read-out: Inhibition of cell viability IC50
How it was run: as §1

C2C12 cells [3] = test: 2-NBDG glucose uptake in C2C12 cells (flow cytometry); format: cell-based, mouse; conditions: for 2-NBDG Glucose Uptake [%]: group II, at 5 μM, 1 h, 100 μM 2-NBDG
Method: (§3) 2-NBDG is a fluorescently-labeled deoxyglucose analog that is commonly used to directly monitor glucose uptake by living cells. For 2-NBDG detection, cells were cultured for 1 h together with 5 μM of a small molecule in glucose free media supplied with 100 μM 2-NBDG at 37° C. before collecting. Furthermore, as internal controls, samples of glucose free media, rFc4espectively glucose free media with test compound, were tested. Subsequently, cells were washed, trypsinized and harvested in ice-cold PBS before centrifuged at 1.6×10^3 rpm at 4° C. Cells were analyzed by flow cytometry (FACS Calibur, BD Bioscience, respectively a BD Accuri® C6 Flow Cytometer).
as §3, with “an inventive compound” for “a small molecule”, “media,” for “media, rFc4espectively”, “compound, respectively glucose free media supplied with 100 μM 2-NBDG” for “compound,”

full length GRK5 = target: T2, full length GRK5 (Homo sapiens, UniProt P34947); test: GRK5 kinase activity assay, ADP Glo Kinase Assay technology (Promega); format: biochemical
T2 construct: 6/2 fold concentrated full length GRK5 (Millipore, #14-714) in reaction buffer; purchased Millipore 14-714
T2 sequence (P34947 whole entry): as above
How it was run: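 Casein (10 μM) phosphorylation with 100 μM ATP in 20 mM MES pH 6.0, 1 mM DTT, 10 mM MgCl2, 0.01% Tween20, 120 min at room temperature; ADP quantified by ADP-Glo luminescence.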

3T3-L1 cells = test: Cell viability assay (CellTiter-Glo / automated cell number) in 3T3-L1; format: cell-based; conditions: Mus musculus, read-out: Inhibition of cell viability IC50
How it was run: as §1

beta-TC6 cells = test: Insulin HTRF assay on beta-TC6 supernatant (relative activity Ar); format: cell-based, mouse; conditions: group I
Description: For further screening of compounds derived from compounds described above for their ability to regulate insulin release an insulin HTRF® (Homogeneous Time-Resolved Fluorescence; Cisbio International, France) was used. This assay is based on two antibodies against insulin binding to different epitopes of insulin. One of these antibodies is coupled to Europium (Ab-Eu-Cryptate) and the other one to the fluorophore XL665 (Ab-XL665). If the insulin is secreted into the supernatant of cell culture, both antibodies can bind to insulin and come therefore into close proximity, which allows upon excitation that energy transfer between (FRET) the long-life fluorescent donor Europium (cryptate) and the acceptors XL665. FRET increases proportionally with insulin concentration.
On day 1, 15 k beta-TC6 cells per well were seeded for 24 or 48 h in 50 μL complete medium. On day 2 or respective on day 3, the medium is removed and cells are washed with 60 μL 1×PBS and 20 μL induction buffer is added using BioTek washer. Subsequently, 10 μL Sunitininb (5-μM f.c.) or the test compound in induction buffer; 0.5% f.c. DMSO (CyBi-well) is transferred to the cells. The cells are then incubated at 37° C. for 2, 3, 4 h. […]
First 10 μL supernatant is transferred from the cell plates in HTRF plates (CyBi-well). […] Finally HTRF is measured on ViewLux ultra high throughput microplate imager (PerkinElmer). […]

beta TC6 cells [4] = test: 2-NBDG uptake in beta TC6 cells; format: cell-based, mouse; conditions: n = 3, FIG. 18
matured C2C12 myotubes = test: 2-NBDG uptake in matured C2C12 myotubes; format: cell-based, mouse; conditions: relative to DMSO = 1; n = 2
Description: (§4) Inhibition of GRK5 led to an increased uptake of the fluorescent glucose analogue 2-NBDG in matured C2C12 myotubes (FIG. 20) and 3T3-L1 adipocytes (FIG. 21) for all five compounds (summarized in table 7). In line with C2C12 cells, the matured myotubes display an increase 2-NBDG uptake after inhibition of GRK5 by compounds 1-5.

3T3-L1 pre-adipocytes = test: 2-NBDG uptake in 3T3-L1 pre-adipocytes; format: cell-based
3T3-L1 adipocytes = test: 2-NBDG uptake in matured 3T3-L1 adipocytes; format: cell-based; conditions: relative to DMSO = 1; n = 2
Description: as §4

[5] = tested on: beta-TC6 insulinoma cells; test: Insulin release by beta-TC6 cells, rat/mouse insulin ELISA, high glucose; format: cell-based
Method: (§5) Release of insulin was detected using a rat/mouse insulin ELISA.
After incubation, the supernatant of the beta-TC6 insulinoma cells was diluted 1:20. The insulin release was measured with rat/mouse insulin ELISA (Merck Millipore Darmstadt, Cat. # EZRMI-13K) by following the manufacture protocol. The enzyme activity of the horseradish peroxidase of the immobilized biotinylated antibodies was monitored spectrophotometrically by the increased absorbency at 490 nm, and corrected by the absorbency at 610 nm.
as §5
The effect on the insulin release of each kinase depletion was monitored by using a rat/mouse insulin ELISA.
For the validation of the negative modulating kinases SCYL1, GRK5, and ADCK1, the target genes were depleted using four different siRNA-sequences each (FIG. 2A-D). The gene-depletion was measured via mRNA-levels after 72 hours while the insulin release was measured using a rat/mouse insulin ELISA after two hours incubation.

IC50 (GRK5): 0.1 to 1 µM | IC50 (HepG2 cells): 0.89 µM | IC50 (full length GRK5; group II, ADP Glo Kinase Assay (Table 9-B)): 0.1 to 1 µM
SMILES: C[C@@H](NC(=O)c1ccc2c(c1)/C(=C/Nc1ccc(CN3CCCCC3)cc1)C(=O)N2)c1ccc(Cl)cc1 [II.73, (3Z)-N-[(1R)-1-(4-chlorophenyl)ethyl]-2-oxo-3-({[4-(piperidin-1-ylmethyl)phenyl]amino}methylene)indoline-5-carboxamide]
IC50 (C2C12 cells [1]): 2.33 µM | IC50 (beta TC6 cells [2]): 0.73 µM | 2-NBDG Glucose Uptake [%] (C2C12 cells [3]): 127% | IC50 (3T3-L1 cells): 2.73 µM

SMILES: COc1cc(Nc2nccc3c2cc(-c2ccc(C(=O)N(C)C)cc2)n3C)cc(C(F)(F)F)c1 [compound 220, N,N-dimethyl-4-[1-methyl-4-(3-methoxy-5-(trifuloromethyl)phenylamino)pyrrolo[3,2-c]pyridin-2-yl]benzamide]
Ar (relative activity) (beta-TC6 cells): + (0% < Ar < 30%)

Inhibition of Grk5 [%] (full length GRK5; primary screen, final assay concentration 100 μM): 60.0%
SMILES: Nc1cccc(-c2cc3cnc(Nc4cccnc4)cc3[nH]2)c1 [C2]
2-NBDG glucose uptake, Ratio (average, DMSO = 1) (beta TC6 cells [4]): 1.529 | 2-NBDG uptake Ratio, C2C12 myotubes matured (matured C2C12 myotubes): 2.383 | 2-NBDG glucose uptake, Ratio (average, DMSO = 1) (3T3-L1 pre-adipocytes; 3T3-L1 pre-adipocytes, n = 3, FIG. 19): 1.111 | 2-NBDG glucose uptake, Ratio (average, DMSO = 1) (C2C12 cells [3]; C2C12 cells, n = 3, FIG. 17): 2.127 | 2-NBDG uptake Ratio, 3T3-L1 adipocytes matured (3T3-L1 adipocytes): 2.234 | Insulin release (average, relative to DMSO = 1) ([5]; beta-TC6, 5 μM): 2.58±0.94 and 2.58 | Insulin release (average, relative to DMSO = 1) ([5]; beta-TC6, 10 μM): 2.01±0.19 and 2.01

SMILES: C[C@@H](NC(=O)c1ccc2c(c1)/C(=C/c1ccc(C(=O)N3CCN(C)CC3)cc1)C(=O)N2)c1ccccc1 [II.143, (3Z)-3-[4-(4-methyl-piperazine-1-carbonyl)-benzylidene]-2-oxo-2,3-dihydro-1H-indole-5-carboxylic acid (1R)-(1-phenyl-ethyl)-amide]
2-NBDG Glucose Uptake [%] (C2C12 cells [3]): 72%

SMILES: CS(=O)(=O)c1ccc(Nc2nccc3[nH]c(-c4ccccc4)cc23)cc1 [compound 324, N-(4-methylsulfonylphenyl)-2-phenyl-1H-pyrrolo[3,2-c]pyridin-4-annine]
Ar (relative activity) (beta-TC6 cells): +++ (50% ≦ Ar < 100%)

SMILES: Nc1cccc(-c2cc3cnc(Nc4cccnc4)cc3[nH]2)c1 [compound 2, 2-(3-aminophenyl)-N-(3-pyridyl)-1H-pyrrolo[3,2-c]pyridin-6-amine]
Glucose uptake (2-NBDG) in 3T3-L1 pre-adipocytes (3T3-L1 pre-adipocytes; GRK5 screen compounds): stimulated
